# According to paper PMC9081605, “A High-Throughput Toxicity Screen of 42 Per- and Polyfluoroalkyl Substances (PFAS) and Functional Assessment of Migration and Gene Expression in Human Placental Trophoblast Cells” (Frontiers in Toxicology, 2022):
# Key:
# Type in all cases: cell-based, human
# JEG-3 cells [1] = assay: Proliferation, change in confluence 0-24 h (IncuCyte Zoom, HTTS); conditions: for Prolif ↑, lowest concentration at which the mean response value exceeded the mean control value ± 2*SD (rough binning): increase; for cellular proliferation relative to vehicle control (rough binning): after 24 h, in at least one concentration
# From the text: (§1) JEG-3 human choriocarcinoma trophoblastic cells (American Type Culture Collection, VA, United States) were maintained in sterile-filtered Minimum Essential Media (MEM) supplemented with L-glutamine and phenol red (Thermo Fisher Scientific, MA, United States), 10% (v/v) heat-inactivated BenchMark Fetal Bovine Serum (Gemini Bio, CA, United States), 1% (v/v) sodium pyruvate (Thermo Fisher Scientific, MA, United States), and 1% (v/v) penicillin streptomycin (Sigma Aldrich, MO, United States). Cells were maintained in an incubator at 37°C with 5% CO2. JEG-3 cells were cultured in 10 cm tissue culture plates and cell passage numbers were recorded.
# (§2) A total of 42 perfluoroalkyl substances (PFAS) were evaluated (Supplementary Table S1 contains source and purity). PFAS stock solutions were maintained in 100% methanol as previous work has shown certain PFAS degrade when stored in dimethyl sulfoxide (DMSO; [Gaballah et al., 2020]). […] The vehicle control group consisted of 97.5% media + 2.5% methanol to match the concentration of methanol in the media at the highest PFAS concentration tested (500 µM). Menadione (50–500 µM) was used as a positive control for cytotoxicity assessment. PFAS were de-identified and assigned random numbers to eliminate bias. Chemical exposure plate maps were designed so that all experimental conditions were tested in at least technical duplicates per plate. The outer edges of each plate received media alone and were excluded from all analyses to avoid edge effects. Each plate map included 14 technical replicates of the vehicle control group and 14 technical replicates of media only. Biological replicates were defined as separate 384 well plates tested on separate days using different cell passages. The experimental workflow is depicted in Supplementary Figure S1.
# (§3) JEG-3 cells were counted using a Z2 Coulter Particle Counter (Beckman Coulter, CA, United States) and seeded at a density of 2,500 cells per well in black-walled, clear bottom 384 well plates (Corning, #3764) and allowed to adhere overnight. Approximately 24 h later, 384 well plates were imaged using an IncuCyte Zoom live cell imager (Essen BioScience Inc., MI, United States) to obtain baseline cellular confluence measurements prior to chemical dosing (0 h). Media was removed from wells and replaced with fresh media containing chemical treatments (exposure media) using a Viaflo liquid handling device (Integra Biosciences, NH, United States). Within 30 min of exposure media application, plates were again imaged for cellular confluence using the IncuCyte Zoom. Plates were incubated with exposure media for 24 h and then imaged again using the IncuCyte Zoom (24 h).
# Plate well bottom images were evaluated using automated cell masking. The automated cell masking program was developed using IncuCyte Zoom base software. Cell masking parameters were defined using a training set of JEG-3 cell images obtained prior to conducting the experiments and following IncuCyte Zoom software recommendations. Briefly, the training images were obtained from cell culture plates with varying levels of JEG-3 cellular confluence (ranging from ∼15% confluent to ∼95% confluent). Parameters for the automated cell masking were first manually set by an experimenter for 3-6 images of low (∼15–30%), medium (∼30–70%), and high confluence (∼70% or greater). The training images were then evaluated by the automated masking program and manually checked to ensure the parameters were sufficiently strict to ignore background (e.g., blank space on the plate well bottom) but adequately sensitive to detect cell borders. The masking program was then implemented on the experimental plates to obtain a baseline cellular confluence measurement at 0 h and a second confluence measurement at 24 h. […]
# JEG-3 cells [2] = assay: CellTiter-Glo luminescent cell viability assay (HTTS); conditions: for cell viability relative to vehicle control (rough binning): after 24 h, in at least one concentration; for Viability ↑, lowest concentration at which the mean response value exceeded the mean control value ± 2*SD (rough binning): increase
# From the text: as §1, §2, §3
# In the same plate evaluated for mitochondrial membrane potential, cell viability measures were duplexed using the CellTiter-Glo (CTG) Luminescent Cell Viability Assay (Promega, WI, United States). CTG reagent was added to each well at a volume of 20 µl. The plate was left at room temperature to incubate for 5 min and then 20 µl from each well was transferred to a low-volume, round-bottom, white 384 well plate (Corning, NY, United States). The CTG reagent lyses cellular and mitochondrial membranes and binds to adenosine triphosphate (ATP) released by cells, which produces a luminescence signal. The intensity of the luminescence was considered a proxy measure for the number of live cells in a well. The luminescence intensities were measured using the CLARIOstar plate reader.
# HTTS data were analyzed using a custom data analysis script in R v 1.2.5019 ([R Core Team, 2019]). Briefly, raw data points corresponding to the confluence measurements at 0 and 24 h, the fluorescence intensities corresponding to MMP, and the relative luminescence units (RLU) corresponding to cell viability were imported directly from Microsoft Excel into the R programming environment, RStudio. Separate plates run on separate days using different JEG-3 passages were considered as biologic replicates. […]
# JEG-3 cells [3] = assay: Mitochondrial membrane potential, JC-10 assay (HTTS)
# From the text: as §1, §2, §3
# The JC-10 assay (Enzo Life Sciences, NY, United States) was used to evaluate mitochondrial membrane potential, the main bioenergetic parameter that regulates respiratory rate, ATP synthesis and reactive oxygen species generation. In cells with polarized mitochondrial membranes, the JC-10 dye localizes to the mitochondrial matrix and forms red fluorescent aggregates (540/590 nm). In cells with depolarized mitochondrial membranes, the JC-10 dye localizes in the cytoplasm and converts to a green fluorescent monomer (490/525 nm). Mitochondrial membrane potential was calculated as the ratio of the green and red fluorescence intensities within a well.
# At the end of the 24 h exposure period, exposure media was removed from the plate. The plate wells were then washed with 1x phosphate buffered saline (1x PBS). After washing, the JC-10 reagent was suspended in fresh 1x PBS and 20 µl was added to each well at a final concentration of 20 μM (Enzo Life Sciences, NY, United States). The plate was incubated for 1 h at 37°C, and the fluorescence intensities at excitation/emission wavelengths of 490/525 nm and 540/590 nm were measured using a CLARIOstar (BMG Labtech, Offenburg, Germany) plate reader, respectively.
# HTTS data were analyzed using a custom data analysis script in R v 1.2.5019 ([R Core Team, 2019]). […]
# [4] = JEG-3 cells, 24 h exposure, four-parameter fit, estimates meeting inclusion criteria, read-out: Proliferation EC50 ± SD
# [5] = Homo sapiens, JEG-3, 24 h, read-out: Viability EC50 ± SD, JEG-3 cells, 24 h exposure, four-parameter fit, estimates meeting inclusion criteria
smiles,measurement,setting,value
O=S(=O)([O-])C(F)(F)C(F)(F)C(F)(F)C(F)(F)C(F)(F)F.[Na+] [Sodium perfluoropentanesulfonate],"Prolif ↑, lowest concentration at which the mean response value exceeded the mean control value ± 2*SD (rough binning)","JEG-3 cells [1]; JEG-3 cells, 24 h",200 µM
same,cellular proliferation relative to vehicle control (rough binning),JEG-3 cells [1],increased cellular proliferation
same,"Viability ↓, lowest concentration at which the mean response value exceeded the mean control value ± 2*SD (rough binning)","JEG-3 cells [2]; JEG-3 cells, 24 h, decrease",350 µM
same,EC50,"JEG-3 cells [2]; JEG-3 cells, raw model output including fits that did not meet inclusion criteria, read-out: Viability EC50 ± SD (raw values)",1210 µM
same,cell viability relative to vehicle control (rough binning),JEG-3 cells [2],reduced cell viability
O=C(O)C(F)(F)C(F)(F)C(F)(F)C(F)F [5H-Octafluoropentanoic acid],EC50,JEG-3 cells [1]; [4],334 ± 56.5 µM
same,EC50,"JEG-3 cells [2]; JEG-3 cells, 24 h exposure, four-parameter fit, estimates meeting inclusion criteria, read-out: Viability EC50 ± SD",354 ± 28.6 µM
O=C(O)C(F)(OC(F)(F)C(F)(F)C(F)(F)F)C(F)(F)F (centres unmarked) [Perfluoro-2-methyl-3-oxahexanoic acid],"Prolif ↑, lowest concentration at which the mean response value exceeded the mean control value ± 2*SD (rough binning)","JEG-3 cells [1]; JEG-3 cells, 24 h",450 µM
same,cellular proliferation relative to vehicle control (rough binning),JEG-3 cells [1],increased cellular proliferation
same,EC50,"JEG-3 cells [1]; read-out: Proliferation EC50 ± SD (raw values), JEG-3 cells, raw model output including fits that did not meet inclusion criteria",1110 ± 267 µM
same,minimal effective concentration,"JEG-3 cells [3]; Homo sapiens, JEG-3, 24 h, read-out: MMP ↓, lowest concentration at which the mean response value exceeded the mean control value ± 2*SD (rough binning)",375 µM
same,MMP relative to vehicle control (rough binning),"JEG-3 cells [3]; after 24 h, in at least one concentration",reduced MMP
O=C(O)C(F)(F)C(F)(F)C(F)(F)C(F)(F)C(F)(F)C(F)(F)C(F)(F)C(F)(F)C(F)(F)C(F)(F)C(F)(F)F [Perfluorododecanoic acid],EC50,"JEG-3 cells [1]; Homo sapiens, JEG-3, 24 h, read-out: Proliferation EC50 ± SD, JEG-3 cells, 24 h exposure, four-parameter fit, estimates meeting inclusion criteria",318 ± 24.5 µM
same,EC50,JEG-3 cells [2]; [5],361 ± 30.8 µM
same,"Viability ↑, lowest concentration at which the mean response value exceeded the mean control value ± 2*SD (rough binning)","JEG-3 cells [2]; JEG-3 cells, 24 h",50 µM
same,cell viability relative to vehicle control (rough binning),JEG-3 cells [2],increased cell viability
OCCC(F)(F)C(F)(F)C(F)(F)C(F)(F)C(F)(F)C(F)(F)C(F)(F)C(F)(F)F [8:2 Fluorotelomer alcohol],EC50,JEG-3 cells [2]; [5],35.7 ± 36.5 µM
same,EC50,"JEG-3 cells [2]; Homo sapiens, JEG-3, 24 h, read-out: viability EC50 ± SE, JEG-3 cells, 24 h",36 ± 37 µM
same,EC50,"JEG-3 cells [3]; Homo sapiens, JEG-3, 24 h, read-out: MMP EC50 ± SD, JEG-3 cells, 24 h exposure, four-parameter fit, estimates meeting inclusion criteria",95.1 ± 15.3 µM
"O=C([O-])C(F)(F)OC(F)(F)F.[Na+] [2,2-Difluoro-2-(trifluoromethoxy)acetate sodium salt]","Prolif ↑, lowest concentration at which the mean response value exceeded the mean control value ± 2*SD (rough binning)","JEG-3 cells [1]; JEG-3 cells, 24 h",50 µM
same,cellular proliferation relative to vehicle control (rough binning),JEG-3 cells [1],increased cellular proliferation
O=S(=O)(O)CCC(F)(F)C(F)(F)C(F)(F)C(F)(F)C(F)(F)C(F)(F)F [6:2 Fluorotelomer sulfonic acid],"Prolif ↑, lowest concentration at which the mean response value exceeded the mean control value ± 2*SD (rough binning)","JEG-3 cells [1]; JEG-3 cells, 24 h",50 µM
same,cellular proliferation relative to vehicle control (rough binning),JEG-3 cells [1],increased cellular proliferation
same,EC50,"JEG-3 cells [3]; JEG-3 cells, raw model output including fits that did not meet inclusion criteria, read-out: MMP EC50 ± SD (raw values)",70608 ± 10 µM
O=C(O)C(F)(F)C(F)(F)C(F)(F)C(F)(F)C(F)(F)C(F)(F)C(F)(F)C(F)(F)C(F)(F)C(F)(F)C(F)(F)C(F)(F)F [Perfluorotridecanoic acid],"Prolif ↓, lowest concentration at which the mean response value exceeded the mean control value ± 2*SD (rough binning)","JEG-3 cells [1]; JEG-3 cells, 24 h, decrease",450 µM
same,"Prolif ↑, lowest concentration at which the mean response value exceeded the mean control value ± 2*SD (rough binning)","JEG-3 cells [1]; JEG-3 cells, 24 h",50 µM
same,EC50,JEG-3 cells [1]; [4],388 ± 125 µM
same,"Viability ↑, lowest concentration at which the mean response value exceeded the mean control value ± 2*SD (rough binning)","JEG-3 cells [2]; JEG-3 cells, 24 h",150 µM
same,cell viability relative to vehicle control (rough binning),JEG-3 cells [2],increased cell viability
